Experimental data from publication PMC4773911 (Journal of the American Chemical Society, 2015).
“Also recorded” adds a separate entry of the source.

Assays:
DAGL-α [1] = biological target: T1, DAGL-α (Homo sapiens, UniProt Q9Y4D2); format: biochemical; details: pre-incubated at IC80 concentration; MB064 labeling; n=3
T1 sequence (Q9Y4D2 1-1042): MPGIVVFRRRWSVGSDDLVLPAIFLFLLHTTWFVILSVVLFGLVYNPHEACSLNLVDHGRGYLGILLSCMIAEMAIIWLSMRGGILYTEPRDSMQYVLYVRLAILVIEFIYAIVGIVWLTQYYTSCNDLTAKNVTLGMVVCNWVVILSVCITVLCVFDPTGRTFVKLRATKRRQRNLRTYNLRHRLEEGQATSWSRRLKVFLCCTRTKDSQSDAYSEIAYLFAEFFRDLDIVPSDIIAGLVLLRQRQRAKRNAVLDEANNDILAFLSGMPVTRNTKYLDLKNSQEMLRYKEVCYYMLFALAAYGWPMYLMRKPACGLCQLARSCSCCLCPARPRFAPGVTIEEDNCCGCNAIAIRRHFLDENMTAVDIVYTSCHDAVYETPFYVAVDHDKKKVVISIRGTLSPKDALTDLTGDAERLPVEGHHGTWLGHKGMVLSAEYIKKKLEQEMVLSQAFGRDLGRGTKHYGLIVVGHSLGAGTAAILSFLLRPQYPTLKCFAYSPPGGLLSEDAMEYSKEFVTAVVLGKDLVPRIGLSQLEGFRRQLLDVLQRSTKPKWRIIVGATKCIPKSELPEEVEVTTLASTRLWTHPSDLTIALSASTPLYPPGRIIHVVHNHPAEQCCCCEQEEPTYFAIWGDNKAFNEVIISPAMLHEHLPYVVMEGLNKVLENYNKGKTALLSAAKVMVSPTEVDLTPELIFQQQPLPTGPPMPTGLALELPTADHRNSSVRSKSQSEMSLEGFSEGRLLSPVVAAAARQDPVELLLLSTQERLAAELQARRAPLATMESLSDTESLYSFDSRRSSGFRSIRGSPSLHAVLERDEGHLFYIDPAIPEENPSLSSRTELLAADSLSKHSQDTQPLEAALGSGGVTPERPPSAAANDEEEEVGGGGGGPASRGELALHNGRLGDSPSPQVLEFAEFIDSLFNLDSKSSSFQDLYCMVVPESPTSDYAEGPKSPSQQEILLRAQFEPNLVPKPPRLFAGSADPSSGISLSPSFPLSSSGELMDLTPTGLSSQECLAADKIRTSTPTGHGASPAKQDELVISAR

mouse liver = details: cited from earlier work
FAAH [2] = biological target: T2, FAAH (Mus musculus, UniProt O08914); experiment: competitive ABPP with TAMRA-FP in mouse brain membrane proteome, FAAH labeling; format: binding
T2 sequence (O08914 1-579): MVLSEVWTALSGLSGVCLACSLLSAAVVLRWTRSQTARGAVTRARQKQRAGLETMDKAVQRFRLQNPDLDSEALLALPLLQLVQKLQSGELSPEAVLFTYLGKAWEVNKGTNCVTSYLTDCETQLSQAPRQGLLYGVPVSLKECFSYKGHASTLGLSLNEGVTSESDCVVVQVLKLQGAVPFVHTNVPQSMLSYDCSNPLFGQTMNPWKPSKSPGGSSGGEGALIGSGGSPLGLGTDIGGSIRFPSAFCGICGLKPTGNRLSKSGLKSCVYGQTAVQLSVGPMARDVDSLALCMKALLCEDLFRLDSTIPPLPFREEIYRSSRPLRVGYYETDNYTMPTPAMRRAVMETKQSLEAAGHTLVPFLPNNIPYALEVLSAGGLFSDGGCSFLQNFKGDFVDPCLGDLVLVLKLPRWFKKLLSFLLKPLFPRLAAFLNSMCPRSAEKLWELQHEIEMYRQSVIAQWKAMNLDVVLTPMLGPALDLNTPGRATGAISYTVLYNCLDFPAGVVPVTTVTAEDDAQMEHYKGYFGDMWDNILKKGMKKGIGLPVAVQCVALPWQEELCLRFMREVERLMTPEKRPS

DAGL-α [3] = biological target: T1, DAGL-α; experiment: real-time, fluorescence-based
cannabinoid CB1 receptor = cannabinoid CB1 receptor (Homo sapiens, UniProt P21554); experiment: cannabinoid CB1 receptor radioligand displacement assay; format: binding
hDAGL-β [4] = biological target: T3, hDAGL-β (Homo sapiens, UniProt Q8NCG7); experiment: biochemical assay with para-nitrophenylbutyrate as a surrogate substrate; details: n=4
T3 sequence (Q8NCG7 1-672): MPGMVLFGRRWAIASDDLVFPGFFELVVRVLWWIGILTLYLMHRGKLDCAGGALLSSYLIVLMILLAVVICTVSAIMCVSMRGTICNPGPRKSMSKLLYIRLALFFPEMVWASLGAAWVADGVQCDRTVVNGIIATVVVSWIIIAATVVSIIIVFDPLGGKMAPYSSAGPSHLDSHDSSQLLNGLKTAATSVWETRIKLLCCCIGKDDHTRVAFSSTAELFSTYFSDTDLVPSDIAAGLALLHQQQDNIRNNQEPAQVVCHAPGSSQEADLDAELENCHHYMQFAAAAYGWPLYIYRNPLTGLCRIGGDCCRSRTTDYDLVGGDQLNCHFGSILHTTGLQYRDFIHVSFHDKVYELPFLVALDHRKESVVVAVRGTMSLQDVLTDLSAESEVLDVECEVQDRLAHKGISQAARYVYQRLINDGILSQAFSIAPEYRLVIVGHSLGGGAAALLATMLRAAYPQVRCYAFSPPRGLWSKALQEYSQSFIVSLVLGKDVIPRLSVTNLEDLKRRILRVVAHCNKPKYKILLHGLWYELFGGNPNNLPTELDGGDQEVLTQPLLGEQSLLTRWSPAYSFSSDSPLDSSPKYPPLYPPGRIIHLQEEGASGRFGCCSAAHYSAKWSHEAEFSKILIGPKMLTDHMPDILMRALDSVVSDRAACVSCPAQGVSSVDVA

FAAH [5] = biological target: T2, FAAH; experiment: ABPP in Neuro2A proteome, FAAH; format: binding
recombinant human ABHD6 = biological target: T4, recombinant human ABHD6 (Homo sapiens, UniProt Q9BV23); experiment: biochemical assay using recombinant human ABHD6
T4 sequence (Q9BV23 1-337): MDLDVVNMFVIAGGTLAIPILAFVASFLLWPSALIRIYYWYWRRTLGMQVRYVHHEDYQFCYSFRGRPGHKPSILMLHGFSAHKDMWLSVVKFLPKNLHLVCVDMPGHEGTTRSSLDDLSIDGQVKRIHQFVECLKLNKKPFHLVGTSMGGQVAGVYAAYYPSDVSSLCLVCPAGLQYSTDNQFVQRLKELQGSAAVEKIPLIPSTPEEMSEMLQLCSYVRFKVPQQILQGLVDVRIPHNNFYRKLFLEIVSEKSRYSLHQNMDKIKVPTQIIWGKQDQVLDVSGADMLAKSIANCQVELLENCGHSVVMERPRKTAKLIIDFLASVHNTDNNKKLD

DAGL-α [6] = biological target: T1, DAGL-α; experiment: radiometric assay using 1-[14C]oleoyl-2-arachidonoyl-sn-glycerol as substrate; format: biochemical; details: 1-[14C]oleoyl-2-arachidonoyl-sn-glycerol 20 μm; n=2
ABHD6 = experiment: ABPP in Neuro2A proteome, ABHD6; format: binding, mouse
serine hydrolases [7] = format: binding, mouse
Neuro2A cells = experiment: targeted lipidomics after in situ treatment of Neuro2A cells; format: cell-based, mouse; details: in situ 1h, 37 °C, n=4
serine hydrolases [8] = format: binding, mouse; details: 10 μM, 30 min
DAGL-α [9] = biological target: T1, DAGL-α; experiment: colorimetric assay using para-nitrophenylbutyrate as a surrogate substrate; format: biochemical
recombinant human MAGL = biological target: T5, recombinant human MAGL (Homo sapiens, UniProt Q99685); experiment: biochemical assay using recombinant human MAGL
T5 sequence (Q99685 1-303): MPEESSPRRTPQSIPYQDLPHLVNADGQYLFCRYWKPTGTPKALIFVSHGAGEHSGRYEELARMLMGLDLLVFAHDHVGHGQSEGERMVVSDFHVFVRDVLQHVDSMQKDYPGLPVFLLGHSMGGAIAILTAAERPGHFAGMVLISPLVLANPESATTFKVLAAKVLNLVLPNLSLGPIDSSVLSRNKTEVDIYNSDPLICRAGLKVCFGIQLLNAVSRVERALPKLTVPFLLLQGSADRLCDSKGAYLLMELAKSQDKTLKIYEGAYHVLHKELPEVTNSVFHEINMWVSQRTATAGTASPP

DAGL-α [10] = format: binding, mouse; details: 10 μM
human PC3 cells = experiment: lipid levels in human PC3 cells; format: cell-based
hDAGL-β [11] = biological target: T3, hDAGL-β; experiment: competitive ABPP with MB064 on membranes of hDAGL-β transfected HEK293T cells; format: binding; details: n=3
[12] = test system: CA1 pyramidal neurons in hippocampal slices; experiment: depolarization-induced suppression of inhibition; format: cell-based, mouse; details: 10 μM
[13] = test system: endogenously expressed DAGL-β; experiment: competitive ABPP with MB064 in mouse spleen membrane proteome; format: binding; details: 10 μM, MB064 1.0 μM
endogenous DAGL-β = biological target: T6, endogenous DAGL-β (Mus musculus, UniProt Q91WC9); experiment: competitive ABPP with MB064 in Neuro2A proteome; format: binding; details: Neuro2A proteome in vitro, n=3
T6 sequence (Q91WC9 1-669): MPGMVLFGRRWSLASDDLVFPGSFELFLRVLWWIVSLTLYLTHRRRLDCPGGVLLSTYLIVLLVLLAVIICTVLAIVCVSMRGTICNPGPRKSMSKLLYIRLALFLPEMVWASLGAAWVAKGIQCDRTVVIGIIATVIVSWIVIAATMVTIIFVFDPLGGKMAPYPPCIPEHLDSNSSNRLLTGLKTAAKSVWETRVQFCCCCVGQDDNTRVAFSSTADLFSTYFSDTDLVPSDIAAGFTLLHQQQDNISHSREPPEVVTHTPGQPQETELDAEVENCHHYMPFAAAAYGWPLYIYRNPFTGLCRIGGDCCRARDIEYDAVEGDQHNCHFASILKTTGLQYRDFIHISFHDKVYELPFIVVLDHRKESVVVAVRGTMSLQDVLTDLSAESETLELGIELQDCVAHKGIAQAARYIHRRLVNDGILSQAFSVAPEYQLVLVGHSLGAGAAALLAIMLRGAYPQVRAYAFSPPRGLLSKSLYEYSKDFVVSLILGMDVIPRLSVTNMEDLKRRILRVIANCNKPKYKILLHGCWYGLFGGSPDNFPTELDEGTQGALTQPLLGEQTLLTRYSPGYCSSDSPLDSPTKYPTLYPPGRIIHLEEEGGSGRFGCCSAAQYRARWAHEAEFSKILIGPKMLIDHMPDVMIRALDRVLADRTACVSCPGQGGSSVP

cannabinoid CB1 receptor, sequence (P21554 whole entry): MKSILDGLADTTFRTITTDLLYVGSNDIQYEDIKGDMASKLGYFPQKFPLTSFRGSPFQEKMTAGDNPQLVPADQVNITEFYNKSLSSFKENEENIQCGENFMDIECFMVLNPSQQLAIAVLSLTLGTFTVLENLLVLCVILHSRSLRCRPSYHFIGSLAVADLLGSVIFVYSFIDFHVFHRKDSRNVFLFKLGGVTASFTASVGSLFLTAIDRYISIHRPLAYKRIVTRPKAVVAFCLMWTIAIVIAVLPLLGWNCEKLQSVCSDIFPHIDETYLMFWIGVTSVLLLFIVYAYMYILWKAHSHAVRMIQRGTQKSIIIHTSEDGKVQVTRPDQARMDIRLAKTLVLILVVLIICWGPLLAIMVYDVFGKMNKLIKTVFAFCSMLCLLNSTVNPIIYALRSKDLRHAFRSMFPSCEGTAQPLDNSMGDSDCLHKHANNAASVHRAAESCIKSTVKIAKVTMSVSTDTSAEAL

## O=C(N1CCCCC1Cc1ccccc1)n1cc(-c2ccc(-c3ccccc3)cc2)nn1 (centres unmarked) [KT-109, reference compound]
DAGL-α [1]
  recovery of DAGL-α activity after size exclusion chromatography: No recovery
Mouse liver
  arachidonic acid levels: reduction

## O=C(CCCCCc1ccccc1)c1nc2ncccc2o1 [LEI104]
FAAH [2]
  IC50: 0.0158 µM
DAGL-α [3]
  IC50: 0.501 µM

## Cc1ccc(-c2cnc3nc(C(=O)CCCCCc4ccccc4)oc3c2)cc1 [LEI105]
FAAH [2]; up to a concentration of 10 μM, TAMRA-FP, n=3
  block of FAAH labeling: did not block FAAH labeling
Cannabinoid CB1 receptor; 10 μM
  displacement of 3H-CP55940 from the CB1 receptor: did not displace
Cannabinoid CB1 receptor; radioligand displacement
  pKi on cannabinoid CB1 receptor: < 5
hDAGL-β [4]
  pIC50 on human DAGL-β: 8.1 ± 0.07
FAAH [5]
  inhibition of FAAH: no inhibition
Recombinant human ABHD6
  pKi on ABHD6: < 5
DAGL-α [6]
  pIC50, radiometric assay: 6.6
ABHD6
  inhibition of ABHD6: no inhibition
Serine hydrolases [7]; 10 μM
  inhibition of labeling of other bands (TAMRA-FP and MB064): did not inhibit labeling of any other band
Neuro2A cells
  cellular 2-AG levels: concentration-dependent reduction; also recorded: dose dependently decreased
  cellular anandamide (AEA) levels: unaffected; also recorded: constant
Serine hydrolases [8]
  reduction of labeling of the detected serine hydrolases, except DAGL-α: ≤ 20%
DAGL-α [9]; para-nitrophenylbutyrate assay, vs LEI104
  fold more potent than LEI104: ~10 fold
DAGL-α [9]; para-nitrophenylbutyrate surrogate substrate, n=4
  pIC50 on human DAGL-α: 8.5 ± 0.06
DAGL-α [3]; natural substrate assay
  fold increase compared to LEI104: 40 fold
Recombinant human MAGL
  pKi on MAGL: < 5
DAGL-α [10]
  reduction of DAGL-α labeling: over 70%
DAGL-α [1]
  recovery of DAGL-α activity after size exclusion chromatography: reversibility
Human PC3 cells
  2-AG levels: reduced
  arachidonic acid levels: reduced
  substrate levels of DAGL (DAG species): no change
hDAGL-β [11]
  pIC50 of hDAGL-β labeling by MB064: 7.4 ± 0.07
[12]
  DSI in hippocampal slices (in words): reduced
[12]; pre-incubation and continuous application
  amplitude of stimulus-evoked inhibitory post-synaptic currents (IPSC): 271 ± 22 pA
[12]; n=15, p<0.05 vs control
  DSI, reduction in IPSC amplitude averaged over the first 15 sec after induction: 18 ± 7%
[13]
  inhibition of endogenous DAGL-β labeling/activity in spleen: could be inhibited; also recorded: can block labeling
Endogenous DAGL-β
  pIC50 of DAGL-β labeling: 7.3 ± 0.07

## CCCCCCCCCCC[C@@H](C[C@@H]1OC(=O)[C@H]1CCCCCC)OC(=O)[C@@H](NC=O)[C@@H](C)CC [OMDM-188, reference compound]
Serine hydrolases [7]; 1 μM, including ABHD6 and ABHD12
  number of serine hydrolases whose labeling was blocked: at least 4
